# Patent publication US9220746B2, “Compounds and methods for treating bone disorders and controlling weight” (The University of North Carolina at Chapel Hill, priority 2009, dated 2015)
# Entries after “also recorded” stand apart in the source; their conditions may differ.
# Experiments:
# [1] = test system: Igfbp2−/− COBs and BMSCs; experiment: In vitro osteoblastogenesis of calvarial osteoblasts and bone marrow stromal cells (ALP, Alizarin Red staining); type: cell-based, mouse
# Experimental: FIG. 1. The heparin-binding domain of IGFBP2 enhances osteoblastogenesis in vitro. a. Von Kossa staining was performed using tibia from 8 weeks old Igfbp2^+/+ and Igfbp2^−/− male mouse. b. Calvarial osteoblasts (COBs) were harvested from day 7 old male Igfbp2^+/+ and Igfbp2^−/− male mouse, and treated with osteogenic media in the presence of 2.5% FCS. At day 7, alkaline phosphatase (ALP) staining was performed. c and d. COBs and Bone marrow stromal cells (BMSCs) from Igfbp2^−/− mouse were treated with osteogenic media with pegylated heparin-binding domain peptide (PEG-HBD) in the presence of 10% FCS. ALP staining (day 7) and Alizarin Red staining (day 14) were performed (c). RNA was isolated at day 14 from BMSCs and expression of ALP, osteocalcin (OC) and Runx2 was analyzed by real-time PCR. Figures shown represent at least 3 independent experiments (n=3). Statistical difference was analyzed by student's t test. *; p<0.05.
# FIG. 7. […] Igfbp2^−/− calvarial osteoblasts (COBs) were cultured with osteogenic media with PBS, control peptide (2 μg/ml) or heparin binding domain peptide (HBD-peptide) (2 μg/ml). Osteoblastogenesis was evaluated by Alizarin Red staining.
# Neonatal calvarial osteoblasts were collected from 7-10 day old mice as previously described^53. Briefly, calvariae were digested 5 times with collagenase P and Trypsin. Cells released from digests 2 through 5 were collected as primary calvarial osteoblasts, and maintained in DMEM supplemented with 10% FCS and non-essential amino acids. Osteoblastogenesis of primary calvarial osteoblasts was carried out by treating cells with 4 mM β-glycerophosphate and 50 μg/ml ascorbic acid in αMEM. Bone marrow stromal cells (BMSCs) were harvested from femurs and tibias of 8 weeks old mice as described previously^10. Osteoblastogenesis of BMSCs was induced by the treatment with osteogenic media consisting of αMEM containing 10% FCS, 8 mM β-glycerophosphate, and 50 μg/ml ascorbic acid.
# [2] = test system: metacarpals; experiment: Metacarpal culture ex vivo (calcein incorporated area, length, width); type: cell-based, mouse
# Experimental: FIG. 2. The heparin binding domain of IGFBP2 enhances periosteal expansion of metacarpals ex vivo. Metacarpals were collected from day 1 male mouse, and treated with osteogenic media with IGFBP2 (200 ng/ml) or the heparin-binding domain peptide (HBD-peptide) (2 μg/ml) in the presence or absence of IGF-1 (20 ng/ml) for 10 days. Bones were labeled with calcein (500 ng/ml) and calcein incorporated area was visualized (a) and longitudinal length of calcein incorporated area was quantified (b). Alcian blue and Von Kossa double staining was performed (c) and length and width of metacarpals were quantified (d). Statistical difference was analyzed by ANOVA followed by Bonferroni post-hoc test. Figures shown represent at least 3 independent experiments. Values are expressed as the mean±SEM (n=3-4). ^a; <0.05 vs PBS, ^b; <0.01 vs PBS, ^c; <0.001 vs PBS, ^d; <0.01 vs HBD, ^e; <0.05 vs IGF-I, ^f; <0.05 vs HBD.
# Metacarpals were isolated from Igfbp2^−/− mice at 1-day old and incubated in DMEM containing 0.5% BSA, 50 μg/ml ascorbic acid and 1 mM β-glycerol phosphate for 10 days^54. Stimulants were added to culture media from day 1. At day 10, metacarpals were incubated in media containing calcein (500 ng/ml) for 2 hours for staining of calcium deposition, and images were obtained. Then, bones were fixed with 4% PFA, embedded in paraffin, and processed for Alcian blue and von Kossa double staining.
# [3] = test system: Igfbp2−/− mice; experiment: MicroCT of femurs and vertebrae (L5) after in vivo treatment of Igfbp2−/− mice; set-up: species or system mouse; conditions: in vivo administration, summary statement
# Experimental: Igfbp2^+/+ and Igfbp2^−/− mice were administered with PBS or PEG-HBD-peptide (50 μg/day) intraperitoneally 5 times per week from 6 to 9 weeks of age. Dual-energy x-ray absorptiometry was performed before the initiation of treatment. Mice were injected with 20 mg/kg calcein intraperitoneally 7 days and 2 days before sample collection.
# Microarchitecture of distal trabecular bone and midshaft cortical bone was analyzed with femurs and vertebrae (L5) by MicroCT (MicroCT40)^10. Approximately 100 slices were measured just proximal to the distal growth plate, with an isotropic pixel size of 12 μm and slice thickness of 12 μm. Midshaft cortical bone thickness was analysis in a similar fashion using approximately 18 slices obtained at the exact midpoint of the femur.
# [4] = test system: IGFBP-2 knockout mice; experiment: Body weight and fat mass of IGFBP-2 knockout mice given the heparin binding peptide; type: in vivo, mouse; conditions: IGFBP-2 −/− mice, 50 mcg intraperitoneally three days per week, 6 week treatment; for Fat Mass: by MRI
# Experimental: Further experiments have been carried out in which the knockout mice and control animals have been administered the mouse homologue of the heparin binding peptide. The peptide was administered to 8 animals in each group. The knockout animals weighed 30.4±1.5 gm whereas the control animals weighed 25.2±1.1 gm. The knockout animals that received the active peptide weighed 24.9±1.3 gm. […] More importantly when absolute fat mass was analyzed by MRI, highly significant differences were also present. The knockout mice had 6.21±0.76 grams of fat. The control mice had 3.82±0.67 grams and the knockout mice administered the heparin binding peptide had 3.67±0.36 grams. Again these are highly significant differences.
# [5] = test system: IGFBP-2 knockout mice; experiment: Glucose tolerance test in IGFBP-2 knockout mice; type: in vivo, mouse; conditions: knockout animals with impaired glucose tolerance; not significantly different from control mice
# [6] = test system: BP2−/− mice; experiment: Flow cytometry of white blood cell populations in peripheral blood; type: in vivo, mouse; conditions: BP2−/− male mice, intraperitoneal injection, vs PBS injected controls
# [7] = listed as heparin binding peptide
sequence,measurement,setting,value
KHLSLEEPKKLRP (IGFBP-2 heparin binding domain-containing peptide sequence) [HBD-peptide],mineralization of Igfbp2−/− COBs (Alizarin Red) compared to PBS,"[1]; 2 μg/ml, osteogenic media",fully active
same,"cell proliferation of osteoblasts and bone marrow stromal cells (alkaline phosphatase, alizarin red staining)",[1]; compared to full length (FL) IGFBP-2 and control peptide,increased cell proliferation
same,bone mineralization phenotype of Igfbp2−/− bone marrow stromal cells and calvarial osteoblasts,"[1]; in vitro, summary statement",rescued the low bone mineralization phenotype
same,calcein incorporated area of metacarpals,"[2]; 10 days, IGFBP2 200 ng/ml, peptides 2 μg/ml, IGF-1 20 ng/ml, vs PBS",significantly enhanced
same,width (and length) of metacarpals,"[2]; 10 days, IGFBP2 200 ng/ml, peptides 2 μg/ml, vs PBS",increased the width of metacarpals
same,periosteal expansion and growth of Igfbp2−/− metacarpal explants,"[2]; ex vivo, summary statement",stimulated periosteal expansion and growth
same,"bone mass phenotype of Igfbp2−/− mice (trabecular bone mass, osteoblast number)",[3],rescued the low bone mass phenotype
same,"bone mass phenotype of Igfbp2−/− mice (trabecular bone mass, osteoblast number)",[3]; listed as HBD,trabecular bone mass was rescued and osteoblast number increased
same,Fat Mass,[4]; listed as HBD,3.67 ± 0.36 gms
same,Fat Mass,[4]; [7],3.67±0.36 gms
same,Body Weight,[4]; listed as HBD,24.9 ± 1.3 gms
same,Body Weight,[4]; [7],24.9±1.3 gms
same,glucose tolerance,[5],significantly improved
same,"percentages of differentiated lymphoid and myeloid cells (monocytes, macrophages, neutrophils) in peripheral blood",[6]; listed as HBD,"suppressed the percentages of mature monocytes, macrophages and neutrophils; also recorded: reduced the number of differentiated lymphoid and myeloid cells"
same,"percentages of differentiated lymphoid and myeloid cells (monocytes, macrophages, neutrophils) in peripheral blood",[6]; listed as IGFBP-2 heparin binding domain (HBD) peptide,reduced the percentage of macrophages
